Experimental data: patent US20050036994A1, “Compounds and methods for downregulating the effects of TGF-beta” (priority 2003, published 2005)

B1: purchased AHSG: purchased AHSG (Sigma) partially purified from human plasma (protein, UniProt P02765 19-300; P02765 341-367, looked up)
Alpha-2-HS-glycoprotein chain … 1: APHGPGLIYRQPNCDDPETEEAALVAIDYINQNLPWGYKHTLNQIDEVKVWPQQPSGELFEIEIDTLETTCHVLDPTPVARCSVRQLKEHAVEGDCDFQLLKLDGKFSVVYAKCDSSPDSAEDVRKVCQDCPLLAPLNDTRVVHAAKAALAAFNAQNNGSNFQLEEISRAQLVPLPPSTYVEFTVSGTDCVAKEATEAAKCNLLAEKQYGFCKATLSEKLGGAEVAVTCMVFQTQPVSSQPQPEGANEAVPTPVVDPDAPPSPPLGAPGLPPAGSPPDSHVL
Alpha-2-HS-glycoprotein chain … 2: TVVQPSVGAAAGPVVPPCPGRIRHFKV

Assays:
pericellular cathepsin B [1] = assay: Pericellular cathepsin B assay with partially purified AHSG or concentrated spent media of infected HEK293 cells (FIG. 8); format: biochemical; settings: for inhibition of pericellular cathepsin B activity: FIG. 8
Description: 50 μl of the cell suspension was added to a black walled 96 well plate (ThermoLabsystems, Part No. 8220, Vantaa, Finland). The appropriate concentration of inhibitors of cathepsin B, purified AHSG or concentrated media were diluted in 5 μl of PAB and the added to the cell suspension in each of the 96 wells. The plate was pre-incubated at 40° C. for 30 min. The reaction was started by adding 50 μl of a 200 μM solution of z-Arg-Arg-AMC (EMD Biosciences Inc, Darmstadt, Germany), a fluorogenic peptide that is lysed by cathhepsin B. This substrate was dissolved in PAB and pre-incubated at 40° C. prior to use. Hydrolytic activity of cathepsin B produces free AMC from the substrate peptide resulting in increased fluorescence. The intensity of fluorescence was measured using ThermoLabsystems Fluoroskan microplate reader with a 355 nm excitation filter and a 420 nm emission filter. The stock solution of z-Arg-Arg-AMC was dissolved in DMSO at the concentration of 10 mM and stored in −80° C. The Cathepsin B specific inhibitors CA-074 and Ac-LVK-CHO (EMD Biosciences Inc., Darmstadt, Germany) were dissolved in H2O at the concentration of 10 mM, aliquoted and stored in −80° C.
HEK 293 cells were subcultured at the cell density of 40% confluence in the morning of the study. […] The next day culture medium was replaced with fresh D-MEM supplemented with 5% FCS and culture for 2 additional days. The culture medium was passed through a filter with the pore size of 0.22 micron and then stored at −80° C. […] A centrifugal filtration unit, NanoSep 100 (Pall Corporation, Ann Arbor, Mich.) were applied to collect the molecular weights lower than 100 kD. The 0.4 ml of the flow through fraction from NanoSep 100 was applied to Nanosep30 and the remaining protein on the filter membrane was re-suspended in 40 μl of PAB (Hank's balanced salt solution without sodium bicarbonate, 0.6 mM MgCl2, 0.6 mM CaCl2, 2 mM 1-cystein and 25 mM PIPES adjusted pH to 7.0) The protein concentration was determined using Bradford reagent (Bio-Rad, Hercules, Calif.). The aliqouts of protein solution was flash frozen by liquid nitrogen and stored in −80° C. prior to use.

pericellular cathepsin B [2] = molecular target: T1, pericellular cathepsin B (Mus musculus, UniProt P10605); assay: Pericellular cathepsin B assay (z-Arg-Arg-AMC) on transfected LLC cells; format: biochemical; settings: 25 nM inhibitor added to the assay
T1 construct: These cells normally express cathepsin B; endogenous in cells; host or cells: Lewis lung carcinoma (LLC) cells, intact cell suspension, transfected with AHSG or empty vectors (not with cathepsin B)
Excerpt: In this example we used the fluorogenic substrate called z-Arg-Arg-AMC. […] The ability of this substrate to stay outside the cell allowed us to measure the enzymatic activity of pericellular cathepsin B (Hulkower, K. I. et al Eur J Biochem 267:4165 (2000). Many human and mouse cancer cell lines have cathepsin B activity on the cell surface.
To measure the effect of AHSG on the activity of cathepsin B, we expressed AHSG using expression vectors, pAAV-AHSG or pCDNA-AHSG that were used to transfect Lewis lung carcinoma (LLC) cells. These cells normally express cathepsin B (Hulkower, K. I. et al Eur J Biochem 267:4165 (2000)). Thus the addition of the substrate to the cells transfected with a non-specific vector lead to lysis of the peptide and the resulting level of cathepsin B activity was arbitrarily set at 100 (FIG. 7, left column). Cathepsin B activity following transfection with pAAV-AHSG was roughly 25% lower than that in control cells (FIG. 7, second column). Next 25 nM of a known inhibitor of cathepsin B, CA 074 was added to the assay. […] Despite the low transfection efficiency of LLC cells that ranged from 10 to 20% as measured using in situ staining of β-galactosidase activity, the observed reduction of the cathepsin B in the presence of AHSG supports the present invention that expression of AHSG suppresses cathepsin B activity on the cell surface. […]

T1 sequence (P10605 80-333): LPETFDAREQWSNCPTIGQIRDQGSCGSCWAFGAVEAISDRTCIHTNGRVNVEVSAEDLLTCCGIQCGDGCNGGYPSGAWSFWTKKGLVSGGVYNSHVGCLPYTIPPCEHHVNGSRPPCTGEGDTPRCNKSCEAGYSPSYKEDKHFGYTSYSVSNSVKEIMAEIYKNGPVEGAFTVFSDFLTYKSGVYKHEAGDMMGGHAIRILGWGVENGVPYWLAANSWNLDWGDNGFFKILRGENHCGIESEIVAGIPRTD

Molecule	inhibition of pericellular cathepsin B activity (pericellular cathepsin B [1])	inhibition of cathepsin B activity (words) (pericellular cathepsin B [2])	inhibition of cathepsin B activity (words) (pericellular cathepsin B [2]; listed as CA 074)	inhibition of pericellular cathepsin B activity (pericellular cathepsin B [1]; listed as AHSG purchased from Sigma)	amount of protein required for complete inhibition, relative to the concentration of AHSG in the blood of adults (0.3 to 0.6 mg/ml) (pericellular cathepsin B [1]; one of the lots)
CCCNC(=O)[C@H]1O[C@@H]1C(=O)N[C@H](C(=O)N1CCC[C@H]1C(=O)O)[C@@H](C)CC [CA-074]	inhibited activity of cathepsin B	inhibited cathepsin B activity	expected inhibition of cathepsin B activity		
B1	inhibited completely the activity of cathepsin B			significant inhibition of pericellular cathepsin B activity	less than 10%
